Columns and labels:
[1] = test system: Phosphatidylinositol 4,5-bisphosphate 3-kinase catalytic subunit alpha isoform (Homo sapiens), P42336 [I800L]; conditions: Compound concentration 100.0 nM
[2] = molecular target: 5-hydroxytryptamine receptor 1B (Homo sapiens) (UniProt P28222); conditions: Compound concentration 10.0 uM
[3] = molecular target: Serine/threonine-protein kinase TAO3 (Homo sapiens) (UniProt Q9H2K8); conditions: Compound concentration 100.0 nM
[4] = molecular target: Aurora kinase C (Homo sapiens) (UniProt Q9UQB9); conditions: Compound concentration 100.0 nM
[5] = molecular target: Casein kinase I isoform gamma-1 (Homo sapiens) (UniProt Q9HCP0); conditions: Compound concentration 100.0 nM
[6] = molecular target: Uncharacterized serine/threonine-protein kinase SBK3 (Homo sapiens) (UniProt P0C264); conditions: Compound concentration 100.0 nM
[7] = test system: Mast/stem cell growth factor receptor Kit (Homo sapiens), P10721 [L576P]; conditions: Compound concentration 100.0 nM
[8] = molecular target: Serine/threonine-protein kinase OSR1 (Homo sapiens) (UniProt O95747); conditions: Compound concentration 100.0 nM
[9] = molecular target: Activin receptor type-1-like (Homo sapiens) (UniProt P37023); conditions: Compound concentration 100.0 nM
[10] = test system: Phosphatidylinositol 4,5-bisphosphate 3-kinase catalytic subunit alpha isoform (Homo sapiens), P42336 [E545A]; conditions: Compound concentration 100.0 nM
[11] = molecular target: MAP/microtubule affinity-regulating kinase 3 (Homo sapiens) (UniProt P27448); conditions: Compound concentration 100.0 nM
[12] = molecular target: Peripheral plasma membrane protein CASK (Homo sapiens) (UniProt O14936); conditions: Compound concentration 100.0 nM
[13] = molecular target: Beta-adrenergic receptor kinase 1 (Homo sapiens) (UniProt P25098); conditions: Compound concentration 100.0 nM
[14] = molecular target: RAC-beta serine/threonine-protein kinase (Homo sapiens) (UniProt P31751); conditions: Compound concentration 100.0 nM
Chain of RAC-beta serine/threonine-protein kinase (Homo sapiens) (P31751 whole entry): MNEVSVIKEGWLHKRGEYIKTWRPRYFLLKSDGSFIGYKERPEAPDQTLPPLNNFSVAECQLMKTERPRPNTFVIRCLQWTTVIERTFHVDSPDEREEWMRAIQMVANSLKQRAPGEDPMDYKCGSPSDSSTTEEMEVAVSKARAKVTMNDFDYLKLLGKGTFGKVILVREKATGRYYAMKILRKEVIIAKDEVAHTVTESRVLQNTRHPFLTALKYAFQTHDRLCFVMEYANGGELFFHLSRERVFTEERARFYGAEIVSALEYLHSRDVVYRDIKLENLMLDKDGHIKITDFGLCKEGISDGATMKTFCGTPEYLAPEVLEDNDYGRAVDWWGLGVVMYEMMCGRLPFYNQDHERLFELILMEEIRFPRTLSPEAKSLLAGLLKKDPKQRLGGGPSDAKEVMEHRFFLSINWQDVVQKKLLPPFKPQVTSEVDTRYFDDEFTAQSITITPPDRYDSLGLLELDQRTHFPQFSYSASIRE

[15] = molecular target: Macrophage-stimulating protein receptor (Homo sapiens) (UniProt Q04912); conditions: Compound concentration 100.0 nM
[16] = molecular target: Tyrosine-protein kinase JAK1 (Homo sapiens) (UniProt P23458); conditions: Compound concentration 100.0 nM
[17] = molecular target: Casein kinase I isoform alpha (Homo sapiens) (UniProt P48729); conditions: Compound concentration 100.0 nM
Chain of Casein kinase I isoform alpha (Homo sapiens) (P48729 2-337 limits assumed): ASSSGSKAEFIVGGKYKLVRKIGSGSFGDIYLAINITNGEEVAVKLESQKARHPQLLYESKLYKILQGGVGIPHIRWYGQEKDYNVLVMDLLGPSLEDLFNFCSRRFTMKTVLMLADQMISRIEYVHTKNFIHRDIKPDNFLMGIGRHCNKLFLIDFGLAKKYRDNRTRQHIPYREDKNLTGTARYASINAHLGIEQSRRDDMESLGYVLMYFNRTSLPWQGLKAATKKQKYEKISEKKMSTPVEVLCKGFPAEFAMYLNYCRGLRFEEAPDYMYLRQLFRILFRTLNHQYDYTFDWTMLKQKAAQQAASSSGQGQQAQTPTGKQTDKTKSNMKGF

[18] = molecular target: Serine/threonine-protein kinase 38 (Homo sapiens) (UniProt Q15208); conditions: Compound concentration 100.0 nM
Chain of Serine/threonine-protein kinase 38 (Homo sapiens) (Q15208 2-465 limits assumed): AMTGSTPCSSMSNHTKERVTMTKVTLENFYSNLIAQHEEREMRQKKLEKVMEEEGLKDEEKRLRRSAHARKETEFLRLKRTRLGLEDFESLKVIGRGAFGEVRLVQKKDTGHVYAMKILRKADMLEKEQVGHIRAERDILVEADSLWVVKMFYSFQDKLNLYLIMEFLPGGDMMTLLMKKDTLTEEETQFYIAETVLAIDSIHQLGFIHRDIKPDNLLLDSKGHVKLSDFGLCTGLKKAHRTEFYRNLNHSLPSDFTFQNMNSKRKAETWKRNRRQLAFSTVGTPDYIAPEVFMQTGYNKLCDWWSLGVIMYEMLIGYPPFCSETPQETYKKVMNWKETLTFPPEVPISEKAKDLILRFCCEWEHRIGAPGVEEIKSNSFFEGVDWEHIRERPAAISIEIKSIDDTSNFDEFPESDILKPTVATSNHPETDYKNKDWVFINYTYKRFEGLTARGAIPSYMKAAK

[19] = molecular target: Serine/threonine-protein kinase BRSK1 (Homo sapiens) (UniProt Q8TDC3); conditions: Compound concentration 100.0 nM
[20] = molecular target: Mitogen-activated protein kinase 3 (Homo sapiens) (UniProt P27361); conditions: Compound concentration 100.0 nM
[21] = molecular target: Ephrin type-A receptor 2 (Homo sapiens) (UniProt P29317); conditions: Compound concentration 100.0 nM
[22] = molecular target: Serine/threonine-protein kinase Nek7 (Homo sapiens) (UniProt Q8TDX7); conditions: Compound concentration 100.0 nM
[23] = molecular target: Phosphatidylinositol 4-phosphate 5-kinase type-1 gamma (Homo sapiens) (UniProt O60331); conditions: Compound concentration 100.0 nM
Chain of Phosphatidylinositol 4-phosphate 5-kinase type-1 gamma (Homo sapiens) (O60331 whole entry): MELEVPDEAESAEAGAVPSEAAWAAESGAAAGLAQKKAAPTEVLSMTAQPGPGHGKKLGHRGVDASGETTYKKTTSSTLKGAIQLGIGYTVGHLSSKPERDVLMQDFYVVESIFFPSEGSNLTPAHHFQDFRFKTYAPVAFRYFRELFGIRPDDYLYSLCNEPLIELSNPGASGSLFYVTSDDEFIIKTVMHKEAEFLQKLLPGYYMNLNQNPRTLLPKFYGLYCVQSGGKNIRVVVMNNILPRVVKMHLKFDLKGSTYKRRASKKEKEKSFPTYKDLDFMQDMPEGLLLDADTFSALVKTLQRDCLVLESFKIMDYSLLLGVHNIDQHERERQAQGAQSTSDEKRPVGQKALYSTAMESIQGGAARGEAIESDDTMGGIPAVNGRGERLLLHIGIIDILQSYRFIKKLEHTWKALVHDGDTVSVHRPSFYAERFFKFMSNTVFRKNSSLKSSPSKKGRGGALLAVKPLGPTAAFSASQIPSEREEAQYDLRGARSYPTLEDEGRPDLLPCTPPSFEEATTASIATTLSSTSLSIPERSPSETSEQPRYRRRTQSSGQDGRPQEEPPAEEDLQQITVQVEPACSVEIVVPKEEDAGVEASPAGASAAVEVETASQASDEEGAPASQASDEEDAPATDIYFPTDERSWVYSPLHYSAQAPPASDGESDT

[24] = molecular target: Serine/threonine-protein kinase 25 (Homo sapiens) (UniProt O00506); conditions: Compound concentration 100.0 nM
[25] = molecular target: Platelet-derived growth factor receptor beta (Homo sapiens) (UniProt P09619); conditions: Compound concentration 100.0 nM
[26] = molecular target: Mitogen-activated protein kinase kinase kinase 14 (Homo sapiens) (UniProt Q99558); conditions: Compound concentration 100.0 nM
[27] = molecular target: Mitogen-activated protein kinase 12 (Homo sapiens) (UniProt P53778); conditions: Compound concentration 100.0 nM
[28] = molecular target: Mitogen-activated protein kinase kinase kinase 10 (Homo sapiens) (UniProt Q02779); conditions: Compound concentration 100.0 nM
[29] = molecular target: SRSF protein kinase 2 (Homo sapiens) (UniProt P78362); conditions: Compound concentration 100.0 nM
[30] = molecular target: Protein-tyrosine kinase 2-beta (Homo sapiens) (UniProt Q14289); conditions: Compound concentration 100.0 nM
[31] = test system: Tyrosine-protein kinase ABL1 (Homo sapiens), P00519 [T315I]; conditions: Compound concentration 100.0 nM
[32] = molecular target: Tyrosine-protein kinase HCK (Homo sapiens) (UniProt P08631); conditions: Compound concentration 100.0 nM
[33] = molecular target: Serine/threonine-protein kinase Nek3 (Homo sapiens) (UniProt P51956); conditions: Compound concentration 100.0 nM
[34] = molecular target: Mast/stem cell growth factor receptor Kit (Homo sapiens) (UniProt P10721); conditions: Compound concentration 100.0 nM
[35] = molecular target: Serine/threonine-protein kinase 17B (Homo sapiens) (UniProt O94768); conditions: Compound concentration 100.0 nM
[36] = molecular target: TGF-beta receptor type-2 (Homo sapiens) (UniProt P37173); conditions: Compound concentration 100.0 nM
[37] = molecular target: Tyrosine-protein kinase SYK (Homo sapiens) (UniProt P43405); conditions: Compound concentration 100.0 nM
[38] = molecular target: Serine/threonine-protein kinase PRP4 homolog (Homo sapiens) (UniProt Q13523); conditions: Compound concentration 100.0 nM
Chain of Serine/threonine-protein kinase PRP4 homolog (Homo sapiens) (Q13523 whole entry): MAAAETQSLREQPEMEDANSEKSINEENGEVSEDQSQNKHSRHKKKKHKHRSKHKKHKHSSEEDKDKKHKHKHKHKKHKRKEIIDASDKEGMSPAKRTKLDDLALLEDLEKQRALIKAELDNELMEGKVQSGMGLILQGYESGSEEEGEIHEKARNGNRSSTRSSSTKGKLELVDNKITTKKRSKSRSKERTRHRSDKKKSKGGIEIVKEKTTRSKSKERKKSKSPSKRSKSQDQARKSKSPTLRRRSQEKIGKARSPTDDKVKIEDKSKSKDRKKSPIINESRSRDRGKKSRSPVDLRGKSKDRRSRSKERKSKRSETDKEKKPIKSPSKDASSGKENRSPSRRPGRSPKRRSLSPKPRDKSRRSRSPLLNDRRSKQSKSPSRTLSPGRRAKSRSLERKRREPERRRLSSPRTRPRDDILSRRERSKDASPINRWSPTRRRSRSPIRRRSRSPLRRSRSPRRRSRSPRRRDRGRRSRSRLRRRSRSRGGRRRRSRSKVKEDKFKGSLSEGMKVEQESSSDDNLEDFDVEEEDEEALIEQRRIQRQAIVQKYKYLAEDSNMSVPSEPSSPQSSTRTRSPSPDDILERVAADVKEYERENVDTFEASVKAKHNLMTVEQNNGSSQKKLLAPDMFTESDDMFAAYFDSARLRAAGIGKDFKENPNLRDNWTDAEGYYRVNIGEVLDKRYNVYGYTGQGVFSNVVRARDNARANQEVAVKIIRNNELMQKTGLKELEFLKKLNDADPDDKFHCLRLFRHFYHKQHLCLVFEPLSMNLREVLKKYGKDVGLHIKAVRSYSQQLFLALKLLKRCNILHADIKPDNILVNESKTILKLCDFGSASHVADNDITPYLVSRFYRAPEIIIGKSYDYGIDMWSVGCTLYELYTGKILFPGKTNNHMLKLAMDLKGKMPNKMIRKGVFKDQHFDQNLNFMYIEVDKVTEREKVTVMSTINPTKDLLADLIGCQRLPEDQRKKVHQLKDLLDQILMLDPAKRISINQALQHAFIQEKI

[39] = test system: ALK tyrosine kinase receptor (Homo sapiens), Q9UM73 [C1156Y]; conditions: Compound concentration 100.0 nM
Chain of ALK tyrosine kinase receptor (Homo sapiens), Q9UM73 [C1156Y] (Q9UM73 whole entry C1156Y, looked up): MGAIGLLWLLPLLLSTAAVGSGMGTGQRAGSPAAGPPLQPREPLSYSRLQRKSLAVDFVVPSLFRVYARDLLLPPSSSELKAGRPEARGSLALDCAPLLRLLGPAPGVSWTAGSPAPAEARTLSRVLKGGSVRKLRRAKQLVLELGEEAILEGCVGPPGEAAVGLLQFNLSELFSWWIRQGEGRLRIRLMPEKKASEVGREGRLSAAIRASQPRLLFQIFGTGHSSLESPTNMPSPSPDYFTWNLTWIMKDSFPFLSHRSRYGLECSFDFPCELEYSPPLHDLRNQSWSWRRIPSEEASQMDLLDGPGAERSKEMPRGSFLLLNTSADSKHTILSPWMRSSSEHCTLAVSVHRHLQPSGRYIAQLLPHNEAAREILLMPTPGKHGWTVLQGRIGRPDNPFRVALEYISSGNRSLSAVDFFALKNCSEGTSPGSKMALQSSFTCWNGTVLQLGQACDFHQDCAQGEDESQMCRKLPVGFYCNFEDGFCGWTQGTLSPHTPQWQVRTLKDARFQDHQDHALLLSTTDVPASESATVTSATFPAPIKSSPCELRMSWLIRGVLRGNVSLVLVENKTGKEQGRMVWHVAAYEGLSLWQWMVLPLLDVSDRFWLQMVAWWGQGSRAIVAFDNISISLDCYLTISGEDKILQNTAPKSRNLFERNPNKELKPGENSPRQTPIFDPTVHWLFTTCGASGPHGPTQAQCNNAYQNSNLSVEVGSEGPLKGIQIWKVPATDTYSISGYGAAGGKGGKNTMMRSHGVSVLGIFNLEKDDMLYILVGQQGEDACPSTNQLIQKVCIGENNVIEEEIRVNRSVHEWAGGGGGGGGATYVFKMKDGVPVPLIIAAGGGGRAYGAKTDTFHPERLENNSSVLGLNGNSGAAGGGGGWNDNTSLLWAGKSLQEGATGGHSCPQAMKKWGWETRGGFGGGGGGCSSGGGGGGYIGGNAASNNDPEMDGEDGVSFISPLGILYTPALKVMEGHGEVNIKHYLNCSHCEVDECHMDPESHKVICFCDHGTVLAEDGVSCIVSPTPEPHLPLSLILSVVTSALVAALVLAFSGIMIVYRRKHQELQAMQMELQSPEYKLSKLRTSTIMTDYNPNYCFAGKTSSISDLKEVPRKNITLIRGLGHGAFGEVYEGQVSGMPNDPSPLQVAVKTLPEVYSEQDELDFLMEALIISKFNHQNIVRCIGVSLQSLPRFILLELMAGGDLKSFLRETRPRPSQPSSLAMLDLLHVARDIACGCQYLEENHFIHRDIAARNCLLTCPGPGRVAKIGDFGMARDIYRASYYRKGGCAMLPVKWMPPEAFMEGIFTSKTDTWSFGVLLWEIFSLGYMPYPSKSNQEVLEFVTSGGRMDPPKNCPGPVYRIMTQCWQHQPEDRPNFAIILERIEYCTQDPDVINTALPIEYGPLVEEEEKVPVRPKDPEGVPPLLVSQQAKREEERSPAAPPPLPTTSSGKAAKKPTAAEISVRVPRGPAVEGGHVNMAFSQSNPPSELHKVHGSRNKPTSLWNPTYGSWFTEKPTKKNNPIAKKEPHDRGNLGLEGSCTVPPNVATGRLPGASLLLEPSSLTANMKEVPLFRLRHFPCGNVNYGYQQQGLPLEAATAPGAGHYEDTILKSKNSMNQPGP

[40] = molecular target: Tyrosine-protein kinase Mer (Homo sapiens) (UniProt Q12866); conditions: Compound concentration 100.0 nM
[41] = molecular target: Serine/threonine-protein kinase 24 (Homo sapiens) (UniProt Q9Y6E0); conditions: Compound concentration 100.0 nM
[42] = molecular target: Phosphorylase b kinase gamma catalytic chain, skeletal muscle/heart isoform (Homo sapiens) (UniProt Q16816); conditions: Compound concentration 100.0 nM
Chain of Phosphorylase b kinase gamma catalytic chain, skeletal muscle/heart isoform (Homo sapiens) (Q16816 whole entry, looked up, canonical isoform): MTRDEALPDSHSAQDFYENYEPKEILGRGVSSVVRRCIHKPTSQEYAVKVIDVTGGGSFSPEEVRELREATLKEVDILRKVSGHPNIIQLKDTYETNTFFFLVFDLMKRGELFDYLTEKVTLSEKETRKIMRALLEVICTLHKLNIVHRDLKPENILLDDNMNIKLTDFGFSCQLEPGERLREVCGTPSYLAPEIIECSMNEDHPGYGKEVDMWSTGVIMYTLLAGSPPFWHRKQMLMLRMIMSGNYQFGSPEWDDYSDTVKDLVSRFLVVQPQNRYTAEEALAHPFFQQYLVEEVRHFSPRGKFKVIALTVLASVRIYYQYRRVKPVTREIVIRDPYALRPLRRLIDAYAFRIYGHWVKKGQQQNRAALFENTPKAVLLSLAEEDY

[43] = molecular target: Casein kinase II subunit alpha (Homo sapiens) (UniProt P68400); conditions: Compound concentration 100.0 nM
[44] = molecular target: Mitogen-activated protein kinase 4 (Homo sapiens) (UniProt P31152); conditions: Compound concentration 100.0 nM
[45] = molecular target: Dual specificity mitogen-activated protein kinase kinase 7 (Homo sapiens) (UniProt O14733); conditions: Compound concentration 100.0 nM

`CCOC(=O)c1cc2cc(-c3cc(C(=O)NCc4ccc(C(=O)O)cc4)nn3C)ccc2[nH]1` [BI 4394] was tested, and the residual activity [1] was 93%, the inhibition [2] was 6.12% and the residual activity [3] was 85%. For the same compound, the residual activity [4] was 100%, the residual activity [5] was 100% and the residual activity [6] was 87%. It also gave a residual activity [7] of 100%, a residual activity [8] of 100% and a residual activity [9] of 68%. It also gave a residual activity [10] of 84%, a residual activity [11] of 93% and a residual activity [12] of 71%. The residual activity [13] was 100%, the residual activity [14] was 100% and the residual activity [15] was 100%. It also gave a residual activity [16] of 94%, a residual activity [17] of 88% and a residual activity [18] of 95%. The residual activity [19] was 100%, the residual activity [20] was 88% and the residual activity [21] was 100%. It also gave a residual activity [22] of 100%, a residual activity [23] of 100% and a residual activity [24] of 100%. For the same compound, the residual activity [25] was 86%, the residual activity [26] was 58% and the residual activity [27] was 77%. The residual activity [28] was 70%, the residual activity [29] was 100% and the residual activity [30] was 100%. For the same compound, the residual activity [31] was 83%, the residual activity [32] was 100% and the residual activity [33] was 88%. It also gave a residual activity [34] of 97%, a residual activity [35] of 100% and a residual activity [36] of 66%. For the same compound, the residual activity [37] was 100%, the residual activity [38] was 89% and the residual activity [39] was 82%. For the same compound, the residual activity [40] was 100%, the residual activity [41] was 92% and the residual activity [42] was 100%. The residual activity [43] was 81%, the residual activity [44] was 86% and the residual activity [45] was 97%.
For `Cn1nc(C(=O)NCc2ccc(C(=O)O)cc2)cc1-c1ccc2[nH]ccc2c1` [BI 4395], the residual activity [1] was 100%, the inhibition [2] was 5.48% and the residual activity [3] was 83%. It also gave a residual activity [4] of 76%, a residual activity [5] of 91% and a residual activity [6] of 79%. It also gave a residual activity [7] of 59%, a residual activity [8] of 88% and a residual activity [9] of 97%. It also gave a residual activity [10] of 77%, a residual activity [11] of 81% and a residual activity [12] of 69%. The residual activity [13] was 98%, the residual activity [14] was 96% and the residual activity [15] was 100%. The residual activity [16] was 84%, the residual activity [17] was 81% and the residual activity [18] was 92%. The residual activity [19] was 86%, the residual activity [20] was 94% and the residual activity [21] was 95%. It also gave a residual activity [22] of 98%, a residual activity [23] of 91% and a residual activity [24] of 91%. The residual activity [25] was 96%, the residual activity [26] was 85% and the residual activity [27] was 90%. It also gave a residual activity [28] of 100%, a residual activity [29] of 85% and a residual activity [30] of 96%. The residual activity [31] was 73%, the residual activity [32] was 81% and the residual activity [33] was 100%. For the same compound, the residual activity [34] was 97%, the residual activity [35] was 91% and the residual activity [36] was 100%. For the same compound, the residual activity [37] was 81%, the residual activity [38] was 100% and the residual activity [39] was 65%. For the same compound, the residual activity [40] was 40%, the residual activity [41] was 97% and the residual activity [42] was 100%. For the same compound, the residual activity [43] was 68%, the residual activity [44] was 89% and the residual activity [45] was 95%.

Source: ChEMBL document CHEMBL4507281, “Data for DCP probe BI-4394” (2021)
